The MIC is the least concentration at which growth counts as inhibited.

Each structure is given as a SMILES string.

Data on one compound can be found in patent publication US11998533B2, “Pharmaceutical compositions comprising LTV-17 and beta-lactamase inhibitors and their use as antibacterial agents” (FEDORA PHARMACEUTICALS INC., priority 2021, dated 2024).

Assay type in all cases: cell-based
Assay [1] has as its system Enterobacter cloacae species complex. In words: MIC broth microdilution, Enterobacter cloacae species complex isolates. The conditions noted are these: LTV-17 alone. The method, then:
(§1) Bacterial isolates: Representative resistant strains of Escherichia coli, Citrobacter freundii, Enterobacter cloacae, Klebsiella pneumoniae, and Proteus mirabilis harboring class-C β-lactamase producers were used to test for the synergistic effect of adding a β-lactamase inhibitor (II^j) to the antibiotic LTV-17 (I) (Table 1).
(§2) Minimum inhibitory concentration (MIC) test procedure: All antibiotics were tested by both the broth microdilution methods according to the Clinical and Laboratory Standards Institute (CLSI) recommendations (M07), and a modified CLSI method that included iron-depleted CA-MHB protocol. The MIC was defined as the lowest concentration of the antibiotic to produce clear wells in the 96-well plates. MIC interpretations were based on the CLSI M100-S23 (2013) and European Committee on Antimicrobial Susceptibility Testing (EUCAST; 2013) breakpoint criteria. Synergistic activity was calculated based on the number of two-fold dilution reduction of the MIC using LTV-17 (I) plus β-lactamase inhibitor Avibactam (II^j) compared to MIC of LTV-17 (I) tested alone against the same strains. The higher the number of two-fold reduction, the stronger the synergy is.
(§3) Avibactam was tested at a fixed concentration of 4 μg/mL.

The next assay relates to Escherichia coli. The experiment in a line: MIC broth microdilution, Escherichia coli isolates. The conditions noted are these: LTV-17 alone. As to the method:
as §1, §2, §3
For orientation: Dilution methods test growth across graded concentrations, often in twofold steps.

In assay [2] the test system is Citrobacter freundii species complex. The experiment in a line: MIC broth microdilution, Citrobacter freundii species complex isolate. The conditions noted are these: isolate 1056585, Elevated AmpC, LTV-17 alone. The method, then:
as §1, §2, §3

The test system of a further assay is Klebsiella pneumoniae. The experiment in a line: MIC broth microdilution, Klebsiella pneumoniae isolate. The following applies: isolate 1167846, CMY-DHA, LTV-17 alone. The method, then: as §1, §2, §3
In the next assay the test system is Proteus mirabilis. In words: MIC broth microdilution, Proteus mirabilis isolate. The following applies: isolate 1159308, CMY-DHA, LTV-17 alone. As to the method: as §1, §2, §3

Turning to `CC(C)(O/N=C(\C(=O)N[C@H]1CON(C2(C(=O)O)C[C@H](N3C(=O)c4cc(O)c(O)cc4C3=O)C(=O)O2)C1=O)c1csc(N)n1)C(=O)O` (stereo partly drawn) [LTV-17, (4S)-2-[(4S)-4-{[(2Z)-2-(2-amino-1,3-thiazol-4-yl)-2-{[(2-carboxypropan-2-yl)oxy]imino}acetyl]amino}-3-oxo-1,2-oxazolidin-2-yl]-4-(5,6-dihydroxy-1,3-dioxo-1,3-dihydro-2H-isoindol-2-yl)-5-oxooxolane-2-carboxylic acid], the MIC is 2 µg/mL in assay [1] (isolate 552115, Elevated AmpC); 0.25 µg/mL in assay [1] (isolate 1057610, Elevated AmpC); 0.5 µg/mL in assay [1] (isolate 1083996, Elevated AmpC); 0.03 µg/mL in the assay on Escherichia coli (isolate 827002, Elevated AmpC); 0.25 µg/mL with Escherichia coli (isolate 841741, Elevated AmpC); 1 µg/mL with Escherichia coli (isolate 850348, Elevated AmpC). Moreover, the MIC in the assay with Escherichia coli (isolate 850361, Elevated AmpC) was found to be 0.06 µg/mL; in the assay with Escherichia coli (isolate 1043714, Elevated AmpC) it was 0.06 µg/mL; in the assay on Escherichia coli (isolate 1047951, Elevated AmpC), 0.12 µg/mL; with Escherichia coli (isolate 1152443, CMY-DHA), 0.5 µg/mL; in the assay on Escherichia coli (isolate 1160345, CMY-DHA) it was 0.5 µg/mL; in the assay on Escherichia coli (isolate 1160670, CMY-DHA) it was 0.12 µg/mL. Also, the MIC was determined as 0.25 µg/mL with Escherichia coli (isolate 1165173, CMY-DHA); 0.5 µg/mL with Escherichia coli (isolate 1165490, CMY-DHA); 0.5 µg/mL with Escherichia coli (isolate 1165546, CMY-DHA); 0.5 µg/mL in the assay with Escherichia coli (isolate 1167103, CMY-DHA); 4 µg/mL in the assay with Escherichia coli (isolate 1167174, CMY-DHA); 0.5 µg/mL in assay [2]. Moreover, the MIC is 1 µg/mL in the assay with Klebsiella pneumoniae and 4 µg/mL with Proteus mirabilis.
